# Earlier results, collected in patent US20050164987A1, “Melatonin combination therapy for improving sleep quality” (priority 2003, published 2005).
# Read-outs that look alike come from different tables or passages of the source.
# Experiments:
# MT-3 melatonin sites = conditions: hamster brain
# [1] = system: other melatonin receptors
# [2] = target: T1, brain omega-1 receptor located on alpha subunit of the GABAA/chloride ion channel receptor complex (Homo sapiens, UniProt P14867+P18507)
# T1 construct: host or cells: brain
# levels of melatonin = conditions: rats
# [3] = from the stomach
# human MT1 receptors = human MT1 receptors (Homo sapiens, UniProt P48039)
# ML2 receptors = ML2 receptors (Homo sapiens, UniProt P16083)
# rats [4] = system: rats
# [5] = system: patients with major depressive disorder; conditions: 1, 5 and 25 mg once a day vs placebo, 8 weeks, over 700 patients
# rats [6] = system: rats; remark: listed apart in the source
# mice = conditions: reference agents; scores below 40 denote behavioral depression
# sleep = conditions: post-nap
# [7] = system: healthy, elderly patients; conditions: oral administration
# [8] = system: L-glutamate 1-carboxylase; conditions: concentrations of 10^−3 M
# [9] = system: lumbar dorsal horn interneurones and Renshaw cells; conditions: in vivo
# GABA uptake system = conditions: concentrations of 5×10^-4 M
# [10] = target: GABA:2-oxo-glutarate aminotransferase (Homo sapiens, UniProt P80404); conditions: concentrations of 10^−3 M
# [11] = not given; remark: listed apart in the source
# physiological rhythms = conditions: 5 mg dose; simulated 9 h time lag
# [12] = system: mammalian melatonin receptors
# [13] = system: calcium-dependent release of dopamine from rabbit retina; conditions: picomolar concentrations
# [14] = system: calcium-dependent release of dopamine from chicken retina; conditions: picomolar concentrations
# [15] = in vivo
# [16] = not given; remark: listed apart in the source
# [17] = 10 mg or 64 mg dosages, compared to placebo
# ML2 receptors, sequence (P16083 whole entry): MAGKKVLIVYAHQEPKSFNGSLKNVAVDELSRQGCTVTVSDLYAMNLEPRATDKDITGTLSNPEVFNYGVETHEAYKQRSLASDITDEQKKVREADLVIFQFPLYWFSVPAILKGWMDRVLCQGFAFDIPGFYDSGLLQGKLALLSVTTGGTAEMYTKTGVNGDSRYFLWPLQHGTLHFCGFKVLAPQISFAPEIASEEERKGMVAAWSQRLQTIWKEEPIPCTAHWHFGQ
# GABA:2-oxo-glutarate aminotransferase, sequence (P80404 29-500): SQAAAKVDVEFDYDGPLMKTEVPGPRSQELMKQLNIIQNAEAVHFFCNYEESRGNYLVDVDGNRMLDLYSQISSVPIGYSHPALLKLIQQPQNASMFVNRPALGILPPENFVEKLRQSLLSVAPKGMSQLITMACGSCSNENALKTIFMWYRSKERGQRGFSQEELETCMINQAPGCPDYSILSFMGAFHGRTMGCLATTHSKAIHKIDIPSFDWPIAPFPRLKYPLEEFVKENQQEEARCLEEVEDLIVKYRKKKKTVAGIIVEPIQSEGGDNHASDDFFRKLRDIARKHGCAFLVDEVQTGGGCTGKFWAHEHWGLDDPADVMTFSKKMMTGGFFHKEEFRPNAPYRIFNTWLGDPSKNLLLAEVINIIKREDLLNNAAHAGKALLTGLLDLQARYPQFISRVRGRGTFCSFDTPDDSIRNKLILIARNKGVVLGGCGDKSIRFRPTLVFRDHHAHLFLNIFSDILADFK
# T1 sequence (P14867 28-456): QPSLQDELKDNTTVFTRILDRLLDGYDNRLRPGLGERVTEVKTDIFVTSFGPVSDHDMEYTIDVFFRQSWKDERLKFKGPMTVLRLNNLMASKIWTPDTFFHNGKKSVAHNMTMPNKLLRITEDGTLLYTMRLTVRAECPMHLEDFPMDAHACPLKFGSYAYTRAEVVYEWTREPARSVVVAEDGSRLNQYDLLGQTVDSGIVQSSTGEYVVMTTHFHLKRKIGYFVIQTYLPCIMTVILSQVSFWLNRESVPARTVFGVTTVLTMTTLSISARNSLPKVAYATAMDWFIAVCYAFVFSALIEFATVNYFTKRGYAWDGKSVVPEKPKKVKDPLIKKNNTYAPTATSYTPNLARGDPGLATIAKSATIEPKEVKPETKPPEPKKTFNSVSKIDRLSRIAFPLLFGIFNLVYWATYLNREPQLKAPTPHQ
# T1 sequence (P18507 40-475): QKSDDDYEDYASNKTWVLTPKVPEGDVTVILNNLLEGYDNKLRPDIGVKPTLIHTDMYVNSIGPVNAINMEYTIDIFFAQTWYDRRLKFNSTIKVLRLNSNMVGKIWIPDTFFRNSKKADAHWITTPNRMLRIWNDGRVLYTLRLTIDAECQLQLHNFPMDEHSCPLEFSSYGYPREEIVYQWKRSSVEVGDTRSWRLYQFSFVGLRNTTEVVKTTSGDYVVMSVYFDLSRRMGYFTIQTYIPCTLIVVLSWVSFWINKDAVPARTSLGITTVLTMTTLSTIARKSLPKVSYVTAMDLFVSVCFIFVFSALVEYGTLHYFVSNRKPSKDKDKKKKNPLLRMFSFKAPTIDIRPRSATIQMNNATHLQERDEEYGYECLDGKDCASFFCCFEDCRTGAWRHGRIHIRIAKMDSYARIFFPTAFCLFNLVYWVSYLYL
# T1 sequence (P47870 25-512 partner limits assumed): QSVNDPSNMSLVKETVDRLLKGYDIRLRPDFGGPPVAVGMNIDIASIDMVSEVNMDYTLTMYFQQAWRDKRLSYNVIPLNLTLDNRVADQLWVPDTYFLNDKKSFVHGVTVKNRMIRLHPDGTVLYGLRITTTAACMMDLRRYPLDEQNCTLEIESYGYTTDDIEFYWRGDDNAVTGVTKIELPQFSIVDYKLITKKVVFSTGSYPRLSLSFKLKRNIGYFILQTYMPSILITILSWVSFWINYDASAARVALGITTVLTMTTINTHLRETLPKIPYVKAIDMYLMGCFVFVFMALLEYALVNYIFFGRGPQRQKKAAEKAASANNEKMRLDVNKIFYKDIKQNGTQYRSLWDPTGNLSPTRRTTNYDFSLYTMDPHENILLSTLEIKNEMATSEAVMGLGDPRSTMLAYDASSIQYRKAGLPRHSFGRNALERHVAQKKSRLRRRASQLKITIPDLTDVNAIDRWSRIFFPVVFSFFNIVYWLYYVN
# human MT1 receptors, sequence (P48039 whole entry): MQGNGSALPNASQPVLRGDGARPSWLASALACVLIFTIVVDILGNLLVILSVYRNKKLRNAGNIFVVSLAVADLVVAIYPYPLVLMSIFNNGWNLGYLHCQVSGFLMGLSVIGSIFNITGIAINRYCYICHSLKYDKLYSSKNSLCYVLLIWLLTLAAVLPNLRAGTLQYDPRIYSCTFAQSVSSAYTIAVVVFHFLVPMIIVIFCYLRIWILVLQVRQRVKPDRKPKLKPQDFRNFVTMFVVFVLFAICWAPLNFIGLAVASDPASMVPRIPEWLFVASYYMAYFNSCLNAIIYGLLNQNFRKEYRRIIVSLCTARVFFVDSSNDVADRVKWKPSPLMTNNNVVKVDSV
compound,measurement,setting,value
"COC(=O)Nc1ccc2[nH]cc(CCNC(C)=O)c2c1 [5-MCA-NAT, 5-methoxy-carbonylamino-N-acetyltryptamine]",affinity for MT-3 melatonin sites,MT-3 melatonin sites,high affinity
same,affinity or efficacy for other melatonin receptors,[1],low affinity or efficacy
"CCN(C(C)=O)c1cccc(-c2ccnc3c(C#N)cnn23)c1 [Zaleplon, N-[3-(3-cyanopyrazolo[1,5-a]pyrimidin-7-yl)phenyl]-N-ethylacetamide]",time of peak plasma concentrations,following oral administration,1 h
same,bioavailability,"oral, substantial presystemic metabolism",30%
same,binding to brain omega-1 receptor,[2],binds selectively
"COc1cccc2c1CC(NC(C)=O)CC2 (centres unmarked) [AH-001, 2-acetamido-8-methoxytetralin]",levels of melatonin,levels of melatonin,increase
zopiclone,absorption,[3],well absorbed
"CC(=O)NCCN1CCc2ccc3c(c21)CCO3 [GR196429, N-[2-[2,3,7,8-tetrahydro-1H-furo(2,3-g)indol-1-yl]ethyl]acetamide]",pKi,human MT1 receptors,9.9
CCC(=O)NCC[C@@H]1CCc2ccc3c(c21)CCO3 [TAK-375],falling asleep,human subjects; [17],fall asleep more quickly
same,remaining asleep,human subjects; [17],remain asleep for a longer period of time
same,side effects,human subjects; human subjects,"limited to only a few cases of headache, somnolence, fatigue, nausea, and dissiness"
same,selectivity with respect to ML2 receptors,ML2 receptors,excellent selectivity
same,binding affinity for benzodiazepine receptors,benzodiazepine receptors,virtually no binding affinity
same,binding affinity for dopamine receptors,dopamine receptors,virtually no binding affinity
same,duration of sleep-promoting effects,rats [4]; compared with melatonin,last longer than those of melatonin
same,learning or memory,"rats [4]; rat, in vivo",did not impair
same,potential for drug dependence,rats [4]; rats,did not demonstrate the potential for drug dependence
same,affinity for ML1 receptors,ML1 receptors,very high affinity
same,binding affinity for opiate receptors,opiate receptors,virtually no binding affinity
COc1ccc2cccc(CCNC(C)=O)c2c1 [agomelatine],optimal dosage,[5],25 mg
"COc1ccc2[nH]cc(CCNc3ccc([N+](=O)[O-])cc3[N+](=O)[O-])c2c1 [ML-23, N-2,4-dinitrophenyl-5-methoxy-tryptamine]",development of severe motor impairment,rats [6],prevented
CCCC(C)(COC(N)=O)COC(N)=O [meprobamate],ED100,mice,300 mg/kg
"Oc1noc2c1CCNC2 [gaboxadol, 4,5,6,7-tetrahydroisoxazolo[5,4-c]pyridin-3-ol]",deep sleep,sleep,promoting
same,falling asleep,sleep,facilitates falling asleep
same,total sleep time,sleep,increasing
same,intensity of non-REM sleep,[7],increase
same,sleep consolidation,[7],increase
same,interaction with L-glutamate 1-carboxylase,[8],did not interact
same,effect of bicuculline methochloride (BMC) on the inhibitory action on central neurones,[9],reversibly antagonized
same,interaction with the GABA uptake system,GABA uptake system,did not interact
same,interaction with GABA:2-oxo-glutarate aminotransferase,[10],did not interact
"Cc1ccc(-c2nc3ccc(C)cn3c2CC(=O)N(C)C)cc1 [zolpidem, N,N,6-trimethyl-2-(4-methylphenyl)-imidazo[1,2-s]pyridine-3-acetamide]",kinetics in the therapeutical dose range,[11]; between 5 and 10 mg in conventional forms,linear kinetics
same,bioavailability,[11]; following oral administration,70%
same,duration of action,[11]; in vivo,up to 6 hours
same,time at which peak plasma concentration is reached,[11]; in vivo,0.5 to 3 h
same,elimination half-life,[11]; mean,2.4 h
COc1cc2c([C@@H](C)CNC(C)=O)c[nH]c2cc1Cl [LY 156735],readaptation speed of physiological rhythms,physiological rhythms,enhanced the readaptation speed
O=C(CCCN1CCC(O)(c2ccc(Cl)cc2)CC1)c1ccc(F)cc1 [haloperidol],ED100,mice,10 mg/kg
"CCC(=O)NCC1Cc2cccc(OC)c2C1 (centres unmarked) [GG-012, 4-methoxy-2-(methylenepropylamide)indan]",levels of melatonin,levels of melatonin,two-fold increase
"CC(=O)NCCc1c(Cc2ccccc2)[nH]c2ccccc12 [Luzindole, 2-benzyl-N-acetyltryptamine]",calcium-dependent release of [3H]dopamine,[12]; concentrations up to 10 μM,does not modify
same,spontaneous outflow of [3H]dopamine,[12]; concentrations up to 10 μM,does not modify
same,ability of melatonin to inhibit [3H]dopamine release,[12]; in a competitive fashion,antagonize
"COc1ccc2[nH]cc(CCNC(C)=O)c2c1 [melatonin, N-[2-(5-Methoxy-1H-indol-3-yl)ethyl]acetamide]",calcium-dependent release of dopamine,[13],selectively inhibit
same,calcium-dependent release of dopamine,[14],selectively inhibit
CCCC(C)C1(CC)C(=O)NC(=O)NC1=O (centres unmarked) [pentobarbital],ED100,mice,100 mg/kg
COC(=O)[C@H]1[C@H]2C[C@@H]3c4[nH]c5cc(OC)ccc5c4CCN3C[C@H]2C[C@@H](OC(=O)c2cc(OC)c(OC)c(OC)c2)[C@@H]1OC [reserpine],ED100,mice,50 mg/kg
"CC(=O)N(C)c1cccc(-c2ccnc3c(C(=O)c4cccs4)cnn23)c1 [Indiplon, N-methyl-N-(3-{3-[2-thienylcarbonyl]-pyrazolo-[1,5-a]-pyrimidin-7-yl}-phenyl)acetamide]",half-life,[15],approximately 1.3 hours
CCC1(c2ccccc2)CCC(=O)NC1=O (centres unmarked) [glutethimide],ED100,mice,300 mg/kg
"CP(=O)(O)CCCN [SKF 97541, 3-aminopropyl(methyl)phosphinic acid]",solubility in water and dilute aqueous base,[16],readily soluble
"CN1C(=O)CN=C(c2ccccc2)c2cc(Cl)ccc21 [diazepam, 7-chloro-1,3-dihydro-1-methyl-5-phenyl-2H-1,4-benzodiazepin-2-one]",ED100,mice,50 mg/kg
